Experiment [1] relates to lymphocyte infiltrates in spinal cord of EAE mice. Briefly: Hematoxylin and eosin staining of spinal cords of EAE mice. The note with it: DA001-treated vs vehicle-treated EAE mice. It is filed as in vivo. As to the method: On day 21, animals were anesthetized intraperitoneally with 4% (w/v) chloral hydrate (BDH) in 0.9% (w/v) saline (USB). Once the anesthetics has set it, the animals were then perfused transcardially (Gilson) with 50 mL of 37° C., 0.005% (w/v) heparinized (Sigma) saline (USB), followed by 80 mL of ice-cold, 4% (w/v) paraformaldehyde (Sigma) in Dulbecco's Phosphate Buffered Saline (GIBCO). The perfused spinal cords were then further fixed in 4% (w/v) paraformaldehyde (Sigma) overnight at 4° C. After overnight incubation, the samples were prepared in an automated tissue processor for dehydration, clearing and paraffin infiltration (Leica EG1150H) followed by paraffin embedding (Leica RM2255). After overnight incubation at room temperature, the blocks were sectioned at 6 μm thickness on microtome (Leica 1250) and laid on Histobond slides (Merienfeld). The slides were incubated at 60 C oven for 24 h before being stained. On the day of staining, the slides were rehydrated in a series of EtOH solutions. The rehydrated slides were then submerged in hematoxyline solution for 20 min at room temperature. The slides were differentiated in acidic solution before being fixed in a series of EtOH solutions then eosin at 20 min in room temperature. […]

Experiment [2] concerns scopolamine-induced memory impaired mice. Briefly: Morris water maze, scopolamine-induced memory impairment. It is filed as in vivo. The note with it: 10 mg/kg orally, scopolamine 4 mg/kg i.p.; day 4 and day 5. As for the experimental part: 6-8 week old outbred male I.C.R. mice, weighing 25-35 g were housed two per cage in a climatically controlled animal room (23-25° C.) under 12 hours light/dark cycling. The animals were allowed access to water and food ad lib. The mice used for the experiment were brought to particular laboratory conditions for two days. All the experiments were conducted between 14:00 and 18:00. […] The experimental mice were randomly assigned into 4 or 6 groups, each consisting of 12 mice with similar mean body weights and age. The test compound was dissolved in physiological saline before the experiments each day. […]
Each mouse was subjected to 4 trials per day for 5 consecutive days. […] The probe trial (without platform) was assessed within a 60 s period on the fifth day of behavioral testing (one experiment), and the time spent in the southeast quadrant where the escape platform had been set during training was recorded computationally and presented as percentage of spatial bias.
The two-way ANOVA with repeated measures was used to analyze latency values, and calculated as the mean latency periods for each mouse. (Data are expressed as means±S.E.M. by using 2-way ANOVA). One-way ANOVA followed by Duncan's multiple-range test (data expressed as mean±S.E.M. *P<0.05 and **P<0.01 versus scopolamine) was used to analyze group differences of the data collected during probe trials. […]

The structures appear in SMILES notation.

Consider `C=C(C)[C@@H]1CC[C@]2(C(=O)O)CC[C@]3(C)C(CC[C@@H]4[C@@]5(C)CC[C@H](O[C@@H]6OC[C@H](O)[C@H](O)[C@H]6O[C@@H]6O[C@@H](C)[C@H](O)[C@@H](O)[C@H]6O)[C@@](C)(CO)[C@@H]5CC[C@]43C)[C@@H]12` (stereo partly drawn) [DA001, 3-O-[α-L-rhamnopyranosyl-(1→2)-α-L-arabinopyranosyl]-3,23-dihydroxy-20(29)-lupen-28-oic acid], for which, in experiment [1], the “lymphocytes surrounding axons / lymphocyte infiltration in spinal cord (H&E)” value is on record as “dramatically reduced”. In the case of `C=C(C)[C@@H]1CC[C@]2(/C=N/O)CC[C@]3(C)C(CCC4[C@@]5(C)CCC(=O)[C@@](C)(CO)[C@@H]5CC[C@]43C)C12` (some centres unmarked) [DA021], the escape latency result in experiment [2] was “significantly reversed the increased escape latency”.

For the origin of these results see patent US9029414B2, “Triterpenoid compounds and methods of use thereof” (Biotechnology Research Corporation, priority 2008, dated 2015).
